Among the data in patent publication US8076488B2, “Bicyclic urea derivatives useful in the treatment of cancer and other disorders” (Bayer Healthcare LLC, priority 2003, dated 2011) are inhibition values, retold here.

SMILES strings stand for the structures.

The target in this assay is T1, c-Raf kinase (Lck-activated c-Raf, Raf-1) (Homo sapiens, UniProt P04049).
T1 construct: GST-c-Raf (from amino acid 302 to amino acid 648); made in house; host or cells: Sf9 insect cells (baculovirus; co-infection with full-length Lck)
T1 sequence (P04049 302-648): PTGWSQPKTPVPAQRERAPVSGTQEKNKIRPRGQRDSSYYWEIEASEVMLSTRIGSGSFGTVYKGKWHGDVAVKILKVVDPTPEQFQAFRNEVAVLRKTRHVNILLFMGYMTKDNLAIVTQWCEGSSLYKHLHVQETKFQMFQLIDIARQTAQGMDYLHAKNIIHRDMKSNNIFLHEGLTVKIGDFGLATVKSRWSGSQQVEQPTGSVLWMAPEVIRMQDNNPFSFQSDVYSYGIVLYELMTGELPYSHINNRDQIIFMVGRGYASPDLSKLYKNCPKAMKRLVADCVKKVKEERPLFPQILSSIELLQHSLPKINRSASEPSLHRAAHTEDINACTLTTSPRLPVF
In words: c-Raf (Raf-1) biochemical assay (radioactive filtermat assay, MEK-1 substrate). Conditions: at 1 micromolar compound; 5 μM ATP, 32° C., 1 hour. The method, then: Biological Tests c-Raf (Raf-1) Biochemical Assay Purification of Proteins Used in the Assay
The c-Raf biochemical assay was performed with a c-Raf enzyme that was activated (phosphorylated) by Lck kinase. Lck-activated c-Raf (Lck/c-Raf) was produced in Sf9 insect cells by co-infecting cells with baculoviruses expressing, under the control of the polyhedrin promoter, GST-c-Raf (from amino acid 302 to amino acid 648) and Lck (full-length). Both baculoviruses were used at the multiplicity of infection of 2.5 and the cells were harvested 48 hours post infection.
MEK-1 protein was produced in Sf9 insect cells by infecting cells with the baculovirus expressing GST-MEK-1 (full-length) fusion protein at the multiplicity of infection of 5 and harvesting the cells 48 hours post infection. Similar purification procedure was used for GST-c-Raf 302-648 and GST-MEK-1.
Transfected cells were suspended at 100 mg of wet cell biomass per mL in a buffer containing 10 mM sodium phosphate, 140 mM sodium chloride pH 7.3, 0.5% Triton X-100 and the protease inhibitor cocktail. The cells were disrupted with Polytron homogenizer and centrifuged 30,000 g for 30 minutes. The 30,000 g supernatant was applied onto GSH-Sepharose. The resin was washed with a buffer containing 50 mM Tris, pH 8.0, 150 mM NaCl and 0.01% Triton X-100. The GST-tagged proteins were eluted with a solution containing 100 mM Glutathione, 50 mM Tris, pH 8.0, 150 mM NaCl and 0.01% Triton X-100. The purified proteins were dialyzed into a buffer containing 20 mM Tris, pH 7.5, 150 mM NaCl and 20% Glycerol.
Biochemical Assay Protocol and Results
The compounds were serially diluted in DMSO using three-fold dilutions to stock concentrations ranging typically from 50 μM to 20 nM (final concentrations in the assay range from 1 μM to 0.4 nM). The c-Raf biochemical assay was performed as a radioactive filtermat assay in 96-well Costar polypropylene plates (Costar 3365). The plates were loaded with 75 μL solution containing 50 mM HEPES pH 7.5, 70 mM NaCl, 80 ng of Lck/c-Raf and 1 μg MEK-1. Subsequently, 2 μL of the serially diluted individual compounds were added to the reaction, prior to the addition of ATP. The reaction was initiated with 25 μL ATP solution containing 5 μM ATP and 0.3 μCi [33P]-ATP. The plates were sealed and incubated at 32° C. for 1 hour. The reaction was quenched with the addition of 50 μl of 4% Phosphoric Acid and harvested onto P30 filtermats (PerkinElmer) using a Wallac Tomtec Harvester. Filtermats were washed with 1% Phosphoric Acid first and deinonized H2O second. The filters were dried in a microwave, soaked in scintillation fluid and read in a Wallac 1205 Betaplate Counter (Wallac Inc., Atlanta, Ga., U.S.A.). The results were expressed as percent inhibition. % Inhibition=[[…]]×100 where • Tib=(counts per minute with inhibitor)−(background) • Ti=(counts per minute without inhibitor)−(background)
`NC(=O)c1cc(Oc2cc(F)c(NC(=O)Nc3ccc4c(c3)C(F)(F)OC(F)(F)O4)c(F)c2)ccn1` [Example 150, 4-[3,5-difluoro-4-({[(2,2,4,4-tetrafluoro-4H-1,3-benzodioxin-6-yl)amino]-carbonyl}amino)phenoxy]pyridine-2-carboxamide]: the inhibition at 1 µM was over 40%. Turning to `O=C(Nc1ccc(Oc2ccnc(C(=O)NCCN3CCCCC3)c2)cc1)Nc1ccc2c(c1)C(F)(F)OC(F)(F)O2` [Example 153], the inhibition at 1 µM was over 40%. For the compound `O=C(Nc1ccc(Oc2ccnc(C(=O)Nc3ccccn3)c2)cc1)Nc1ccc2c(c1)C(F)(F)OC(F)(F)O2` [Example 155], the inhibition at 1 µM is over 40%. With `Cn1ncc2cc(NC(=O)Nc3ccc(Oc4ccnc(C(=O)NCCN5CCCC5)c4)cc3)ccc21` [Example 156], the inhibition at 1 µM is over 40%.

Consider `Cn1ncc2cc(NC(=O)Nc3ccc(Oc4ccnc(C(=O)NCCN5CCNCC5)c4)cc3)ccc21` [Example 157], for which the inhibition at 1 µM was over 40%.

In the case of `O=C(Nc1ccc(Oc2ccnc(C(=O)NCCCn3ccnc3)c2)cc1)Nc1ccc2c(c1)OCCO2` [Example 158], the inhibition at 1 µM was over 40%. For the compound `O=C(Nc1ccc(Oc2ccnc(C(=O)NCCN3CCCC3)c2)cc1)Nc1ccc2c(c1)OCCO2` [Example 159], the inhibition at 1 µM was over 40%.

In the case of `Cn1ncc2cc(NC(=O)Nc3ccc(Oc4ccnc(C(=O)NCCCn5ccnc5)c4)cc3)ccc21` [Example 160], the inhibition at 1 µM was over 40%.

As for `Cn1ncc2cc(NC(=O)Nc3ccc(Oc4ccnc(C(=O)NCCN5CCCCC5)c4)cc3)ccc21` [Example 161], the inhibition at 1 µM is over 40%. As to `Cn1ncc2cc(NC(=O)Nc3ccc(Oc4ccnc(C(=O)NCC5CC5)c4)cc3)ccc21` [Example 162], the inhibition at 1 µM was over 40%. In the case of `Cn1ncc2cc(NC(=O)Nc3ccc(Oc4ccnc(C(=O)NC5CCC5)c4)cc3)ccc21` [Example 163], the inhibition at 1 µM was over 40%. As to `Cn1ncc2cc(NC(=O)Nc3cccc(Oc4ccnc(C(=O)NCCCn5ccnc5)c4)c3)ccc21` [Example 166], the inhibition at 1 µM is over 40%. Consider `O=C(Nc1cccc(Oc2ccnc(C(=O)NCCN3CCCC3)c2)c1)Nc1ccc2c(c1)C(F)(F)OC(F)(F)O2` [Example 168], for which the inhibition at 1 µM is over 40%. To `O=C(Nc1cccc(Oc2ccnc(C(=O)Nc3cccnc3)c2)c1)Nc1ccc2c(c1)C(F)(F)OC(F)(F)O2` [Example 169] belongs over 40%.

Usually inhibition stands for the share of the control response that was lost under treatment.
